Laboratory results as given in US20130018033A1, “RAF INHIBITOR COMPOUNDS AND METHODS OF USE THEREOF” (ARRAY BIOPHARMA INC., priority 2009, published 2013).
Like-named read-outs stand apart in the source and are kept apart here.

Molecular target: T1, V600E full-length B-Raf (Homo sapiens, UniProt P15056, V600E)
T1 construct: 1 μM FSBA-MEK and 20 nM V600E full-length B-Raf; made in house; host or cells: Sf9 insect cells (baculovirus)
Test: B-Raf IC50 assay (Example A)
Type: biochemical
Excerpt: Determining the activity of Raf in the sample is possible by a number of direct and indirect detection methods (US 2004/0082014). Activity of human recombinant B-Raf protein may be assessed in vitro by assay of the incorporation of radio labeled phosphate to recombinant MAP kinase (MEK), a known physiologic substrate of B-Raf, according to US 2004/0127496 and WO 03/022840. The activity/inhibition of V600E full-length B-Raf was estimated by measuring the incorporation of radio labeled phosphate from [γ-^33P]ATP into FSBA-modified wild-type MEK (see Example A).
Activity of human recombinant B-Raf protein may be assessed in vitro by assay of the incorporation of radio labeled phosphate to recombinant MAP kinase (MEK), a known physiologic substrate of B-Raf, according to US 2004/0127496 and WO 03/022840. Catalytically active human recombinant B-Raf protein is obtained by purification from sf9 insect cells infected with a human B-Raf recombinant baculovirus expression vector.
The activity/inhibition of V600E full-length B-Raf was estimated by measuring the incorporation of radio labeled phosphate from [γ-^33P]ATP into FSBA-modified wild-type MEK. The 30-μL assay mixtures contained 25 mM Na Pipes, pH 7.2, 100 mM KCl, 10 mM MgCl2, 5 mM β-glycerophosphate, […], 4 μM ATP, 500 nCi [γ-^33P]ATP, 1 μM FSBA-MEK and 20 nM V600E full-length B-Raf. Incubations were carried out at 22° C. in a Costar 3365 plate (Corning). Prior to the assay, the B-Raf and FSBA-MEK were preincubated together in assay buffer at 1.5×(20 μL of 30 nM and 1.5 μM, respectively) for 15 minutes, and the assay was initiated by the addition of 10 μL of 10 μM ATP. Following the 60-minute incubation, the assay mixtures were quenched by the addition of 100 μL of 25% TCA, the plate was mixed on a rotary shaker for 1 minute, and the product was captured on a Perkin-Elmer GF/B filter plate using a Tomtec Mach III Harvester. After sealing the bottom of the plate, 35 μL of Bio-Safe II (Research Products International) scintillation cocktail were added to each well and the plate was top-sealed and counted in a Topcount NXT (Packard).

[1] = [γ-33P]ATP incorporation into FSBA-MEK, 4 μM ATP, read-out: BRAF V600E IC50
[2] = B-Raf V600E assay of Example A, read-out: IC50

T1 sequence (P15056 whole entry V600E): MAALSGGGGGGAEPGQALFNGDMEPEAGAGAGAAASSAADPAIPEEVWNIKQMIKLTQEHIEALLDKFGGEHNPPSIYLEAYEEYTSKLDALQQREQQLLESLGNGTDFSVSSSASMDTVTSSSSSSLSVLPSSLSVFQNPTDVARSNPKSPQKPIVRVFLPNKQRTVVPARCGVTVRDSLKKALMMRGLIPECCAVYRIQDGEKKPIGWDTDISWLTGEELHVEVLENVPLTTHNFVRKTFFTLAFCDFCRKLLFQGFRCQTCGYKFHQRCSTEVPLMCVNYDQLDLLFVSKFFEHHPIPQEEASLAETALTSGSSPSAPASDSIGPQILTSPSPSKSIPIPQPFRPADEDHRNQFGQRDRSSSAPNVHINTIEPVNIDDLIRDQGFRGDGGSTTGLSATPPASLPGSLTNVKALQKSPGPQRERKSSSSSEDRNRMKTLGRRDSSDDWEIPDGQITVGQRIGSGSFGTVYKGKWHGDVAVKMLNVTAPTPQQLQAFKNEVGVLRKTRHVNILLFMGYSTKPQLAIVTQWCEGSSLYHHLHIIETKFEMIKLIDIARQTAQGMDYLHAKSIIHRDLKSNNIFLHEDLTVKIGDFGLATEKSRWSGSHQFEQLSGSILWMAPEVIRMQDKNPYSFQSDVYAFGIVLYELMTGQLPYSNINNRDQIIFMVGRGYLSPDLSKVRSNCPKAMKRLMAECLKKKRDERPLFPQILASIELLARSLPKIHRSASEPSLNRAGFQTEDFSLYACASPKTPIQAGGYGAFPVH

| SMILES | IC50 [1] [µM] | IC50 [2] [µM] |
| --- | --- | --- |
| CCCS(=O)(=O)Nc1cc(F)c(F)c(NC(=O)c2cccc3c(NC4CCCCC4)ncnc23)c1F [Example 41, 4-Cyclohexylamino-quinazoline-8-carboxylic acid [2,3,6-trifluoro-5-(propane-1-sulfonylamino)-phenyl]-amide] | > 1 | – |
| CCCS(=O)(=O)Nc1cc(F)c(F)c(NC(=O)c2cccc3c(NC4CCOCC4)ncnc23)c1F [Example 42, 4-(Tetrahydropyran-4-ylamino)-quinazoline-8-carboxylic acid [2,3,6-trifluoro-5-(propane-1-sulfonylamino)-phenyl]-amide] | > 1 | – |
| CCCS(=O)(=O)Nc1cc(F)c(F)c(NC(=O)c2cccc3c(NC4CCNCC4)ncnc23)c1F [Example 44, 4-(Piperidin-4-ylamino)-quinazoline-8-carboxylic acid [2,3,6-trifluoro-5-(propane-1-sulfonylamino)-phenyl]-amide] | > 1 | – |
| CCCS(=O)(=O)Nc1cc(F)c(F)c(NC(=O)c2cccc3c(NC4CC4)ncnc23)c1F [Example 45, 4-Cyclopropylamino-quinazoline-8-carboxylic acid [2,3,6-trifluoro-5-(propane-1-sulfonylamino)-phenyl]-amide] | 0.545 | < 1 |
| CCCS(=O)(=O)Nc1cc(F)c(F)c(NC(=O)c2cccc3c(NC4CCC(F)(F)CC4)ncnc23)c1F [Example 46, 4-(4,4-Difluoro-cyclohexylamino)-quinazoline-8-carboxylic acid [2,3,6-trifluoro-5-(propane-1-sulfonylamino)-phenyl]-amide] | > 1 | – |
| CCCS(=O)(=O)Nc1cc(F)c(F)c(NC(=O)c2cccc3c(Nc4ccn(C)n4)ncnc23)c1F [Example 48, 4-(1-Methyl-1H-pyrazol-3-ylamino)-N-(2,3,6-trifluoro-5-(propylsulfonamido)phenyl)quinazoline-8-carboxamide] | > 1 | – |
| CCCS(=O)(=O)Nc1cc(F)c(F)c(NC(=O)c2cccc3c(NCC)ncnc23)c1F [Example 49, 4-Ethylamino-quinazoline-8-carboxylic acid [2,3,6-trifluoro-5-(propane-1-sulfonylamino)-phenyl]-amide] | 0.737 | < 1 |
| CCCS(=O)(=O)Nc1cc(F)c(F)c(NC(=O)c2cccc3c(NC)ncnc23)c1F [Example 50, 4-Methylamino-quinazoline-8-carboxylic acid [2,3,6-trifluoro-5-(propane-1-sulfonylamino)-phenyl]-amide] | > 1 | – |
| O=C(Nc1c(F)ccc(NS(=O)(=O)CC2CC2)c1F)c1cccc2c(NC3CC3)ncnc12 [Example 53, 4-Cyclopropylamino-quinazoline-8-carboxylic acid (3-cyclopropylmethanesulfonylamino-2,6-difluoro-phenyl)-amide] | 0.976 | < 1 |
| CCCS(=O)(=O)Nc1ccc(F)c(NC(=O)c2cc(C)cc3c(NC4CCCC4)ncnc23)c1F [Example 71, 4-Cyclopentylamino-6-methyl-quinazoline-8-carboxylic acid [2,6-difluoro-3-(propane-1-sulfonylamino)-phenyl]-amide] | > 1 | – |
| CCCS(=O)(=O)Nc1ccc(F)c(NC(=O)c2cc(C)cc3c(NC4CC4)ncnc23)c1F [Example 73, 4-Cyclopropylamino-6-methyl-quinazoline-8-carboxylic acid [2,6-difluoro-3-(propane-1-sulfonylamino)-phenyl]-amide] | 0.879 | < 1 |
| CCCS(=O)(=O)Nc1ccc(F)c(NC(=O)c2cc(C)cc3c(NC4CCOCC4)ncnc23)c1F [Example 74, 6-Methyl-4-(tetrahydro-pyran-4-ylamino)-quinazoline-8-carboxylic acid [2,6-difluoro-3-(propane-1-sulfonylamino)-phenyl]-amide] | > 1 | – |
| CCCS(=O)(=O)Nc1ccc(F)c(NC(=O)c2cc(C)cc3c(NC4CCC4)ncnc23)c1F [Example 75, 4-Cyclobutylamino-6-methyl-quinazoline-8-carboxylic acid [2,6-difluoro-3-(propane-1-sulfonylamino)-phenyl]-amide] | > 1 | – |
